Assays:
[1] = target: T1, EcG6PDH; glucose-6-phosphate dehydrogenase from Escherichia coli (Escherichia coli, UniProt P0AC53, R50A); assay: NAD(P)H formation at […] nm, Michaelis-Menten fit; assay type: biochemical; conditions: co-substrate NADP+ at 10 times its KM; 25°C
T1 construct: gene zwf; full length; N-terminal 6xHis tag cut by TEV protease (Gly-His left before Met1); plasmid pET-TEV-EcG6PDH from pETG6PDH

[2] = target: T2, EcG6PDH; glucose-6-phosphate dehydrogenase from Escherichia coli (Escherichia coli, UniProt P0AC53, K18A); assay: NAD(P)H formation at […] nm, Michaelis-Menten fit; assay type: biochemical; conditions: co-substrate NADP+ at 10 times its KM; 25°C
T2 construct: gene zwf; full length; N-terminal 6xHis tag cut by TEV protease (Gly-His left before Met1); plasmid pET-TEV-EcG6PDH from pETG6PDH

O=P(O)(O)OC[C@H]1OC(O)[C@H](O)[C@@H](O)[C@@H]1O (some centres unmarked) [G6P]
apparent KM [1]: we determined the effect of the mutations on the apparent kinetic parameters for G6P
apparent KM [2]: we determined the effect of the mutations on the apparent kinetic parameters for G6P

From paper PMC4807051, “Determinants of Cofactor Specificity for the Glucose-6-Phosphate Dehydrogenase from Escherichia coli: Simulation, Kinetics and Evolutionary Studies” (PLoS ONE, 2016)
